Test results as given in patent US9926347B2, “Methods for engineering sugar transporter preferences” (Board of Regents, The University of Texas System, priority 2013, dated 2018).
Substitutions are numbered along the chain they refer to. Names and notes keep the numbering of the source. “Also recorded” adds a separate entry of the source.

Assays:
[1] = biological target: T1, Candida intermedia GXS1 transporter protein, wild type, SEQ ID NO: 1 (Sungouiella intermedia, UniProt Q2MEV7); assay: Radiolabeled xylose uptake kinetics, wild type GXS1; type: cell-based; details: gene in p414-TEF, S. cerevisiae EX.12
T1 construct: 14C-xylose uptake
T1 sequence (Q2MEV7 1-522): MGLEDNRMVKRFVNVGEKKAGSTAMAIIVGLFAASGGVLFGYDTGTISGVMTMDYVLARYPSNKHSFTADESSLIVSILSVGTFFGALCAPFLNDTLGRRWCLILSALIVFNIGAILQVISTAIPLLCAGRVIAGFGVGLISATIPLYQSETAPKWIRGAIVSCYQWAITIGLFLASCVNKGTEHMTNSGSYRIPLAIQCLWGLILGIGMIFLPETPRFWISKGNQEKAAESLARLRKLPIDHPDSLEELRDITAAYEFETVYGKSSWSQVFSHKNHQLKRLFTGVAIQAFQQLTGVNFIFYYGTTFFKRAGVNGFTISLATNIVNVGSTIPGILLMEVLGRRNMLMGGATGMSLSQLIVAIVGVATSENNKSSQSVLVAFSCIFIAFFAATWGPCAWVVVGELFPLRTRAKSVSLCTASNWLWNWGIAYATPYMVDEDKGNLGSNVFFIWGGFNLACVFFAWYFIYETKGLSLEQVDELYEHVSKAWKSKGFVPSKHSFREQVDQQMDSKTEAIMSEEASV
Method: (§1) Radiolabelled xylose uptake experiments were performed to quantify the improvement of transport kinetics in the Phe^38 Ile^39 Met^40 triple mutant. […] An increased KM was observed as well (FIG. 5E), a phenotype observed in previous efforts to engineer this transporter (38). Nevertheless, the binding affinity is still quite high for practical culturing at a value corresponding to around 0.1 g/L (Table 2).
(§2) Strains, media, and plasmids—Molecular cloning and standard culturing techniques with E. coli DH10B were performed according to Sambrook (46). S. cerevisiae EX.12 was used for all yeast experiments and was constructed as previously described (38). All transporters were cloned into p414-TEF, a standard yeast shuttle vector created by Mumberg (47). Yeast synthetic complete media was used for culture and experimental growth media. CSM-Trp was used when S. cerevisiae EX.12 was carrying a transporter. Carbon sources were provided at 20 g/L.
(§3) Radiolabeled xylose uptake—Uptake of ^14C labeled xylose was used to determine the Michaelis-Menten parameters for C. intermedia GXS1 and the Phe^38 Ile^39 Met^40 triple mutant. The method was performed as previously described (38).

[2] = test system: Candida intermedia GXS1 variant Phe38 Ile39 Met40 (F38I39M40; V38F/L39I/F40M; motif G-G-F-I-M-G, SEQ ID NO: 4; parent GXS1 SEQ ID NO: 1); assay: Radiolabeled xylose uptake kinetics, gxs1 Phe38 Ile39 Met40 triple mutant; type: cell-based; details: triple mutant versus wild type GXS1
Method: as §1, §2, §3

[3] = biological target: T2, Candida intermedia GXS1 variant Phe38 Ile39 Met40 (F38I39M40; V38F/L39I/F40M; motif G-G-F-I-M-G, SEQ ID NO: 4; parent GXS1 SEQ ID NO: 1) (Sungouiella intermedia, UniProt Q2MEV7, F40M/L39I/V38F); assay: as above; type: cell-based
T2 construct: 14C-xylose uptake
T2 sequence (Q2MEV7 1-522 V38F/L39I/F40M): T1 sequence (Q2MEV7 1-522) with V38F, L39I, F40M
Method: as §1, §2, §3

[4] = biological target: Candida intermedia GXS1 variant Phe38 Ile39 Met40 (F38I39M40; motif G-G-F-I-M-G, SEQ ID NO: 4; parent GXS1 SEQ ID NO: 1) (Sungouiella intermedia, UniProt Q2MEV7, F40M/L39I/V38F); type: cell-based; details: glucose at levels of 5 g/L; S. cerevisiae EX.12
Chain of Candida intermedia GXS1 variant Phe38 Ile39 Met40 (F38I39M40; motif G-G-F-I-M-G, SEQ ID NO: 4; parent GXS1 SEQ ID NO: 1) (Q2MEV7 entry or part of it V38F/L39I/F40M): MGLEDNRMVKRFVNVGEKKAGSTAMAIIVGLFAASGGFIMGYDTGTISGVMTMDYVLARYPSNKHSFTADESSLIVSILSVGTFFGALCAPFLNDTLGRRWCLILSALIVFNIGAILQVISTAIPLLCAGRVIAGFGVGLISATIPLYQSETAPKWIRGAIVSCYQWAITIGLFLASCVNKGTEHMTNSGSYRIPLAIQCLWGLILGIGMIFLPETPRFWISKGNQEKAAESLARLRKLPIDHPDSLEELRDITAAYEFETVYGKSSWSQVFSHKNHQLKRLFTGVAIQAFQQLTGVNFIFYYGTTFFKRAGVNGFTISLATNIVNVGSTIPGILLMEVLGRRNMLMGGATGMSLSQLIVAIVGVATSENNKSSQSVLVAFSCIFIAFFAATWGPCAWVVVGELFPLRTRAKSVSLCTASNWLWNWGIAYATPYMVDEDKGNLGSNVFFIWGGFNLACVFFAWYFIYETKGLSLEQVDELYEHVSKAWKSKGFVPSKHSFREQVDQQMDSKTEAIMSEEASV
Method: Growth rate measurements—All exponential growth rates were measured and calculated according to the method previously described using a Bioscreen C (Growth Curves USA, Piscataway, N.J.) and a MATLAB script. The Bioscreen C measures online optical density for easy and accurate measurement of the growth curves of up to 200 strains at one time. Error was calculated based on biological triplicate in all cases. In all cases, the Bioscreen C was set to maintain a temperature of 30° C., employ high continuous shaking, and to measure optical density every 10 minutes. A single carbon source per well was used in all experiments save one.

[5] = substrate: OC1OC[C@@H](O)[C@H](O)[C@H]1O; assay: Radiolabeled xylose uptake kinetics, gxs1 Phe38 Ile39 Met40 triple mutant; type: cell-based
Method: as §1, §2, §3

[6] = substrate: OC1OC[C@@H](O)[C@H](O)[C@H]1O; assay: Radiolabeled xylose uptake kinetics, wild type GXS1; type: cell-based, Candida intermedia; details: other: radiolabeled xylose uptake; gene in p414-TEF; S. cerevisiae EX.12
Method: as §1, §2, §3

OC1OC[C@@H](O)[C@H](O)[C@H]1O (stereo partly shown) [xylose]
VMAX (xylose) [1]: 7.23 ± 0.6 nmol min^−1 gDCW^−1
KM change compared to wild type (xylose) [2]: increased KM; also recorded: significantly increased
Vmax change compared to wild type (xylose) [2]: doubling in Vmax
VMAX (xylose) ([3]; radiolabeled xylose uptake, gene in p414-TEF, S. cerevisiae EX.12): 15.01 ± 2.38 nmol min^−1 gDCW^−1
Km ([3]; read-out: binding affinity / KM (xylose), as g/L, conversion of KM): ~666 µM

OC[C@H]1OC(O)[C@H](O)[C@@H](O)[C@@H]1O (stereo partly shown) [glucose]
radiolabelled xylose uptake in the presence of glucose (inhibition by glucose) ([3]; glucose concentration not stated): no radiolabelled xylose uptake was detected
inhibition of xylose growth by glucose [4]: still appear to inhibit xylose growth

B1: Candida intermedia GXS1 variant Phe38 Ile39 Met40 (F38I39M40; V38F/L39I/F40M; motif G-G-F-I-M-G, SEQ ID NO: 4; parent GXS1 SEQ ID NO: 1) (Sungouiella … (protein)
chain: T1 sequence (Q2MEV7 1-522) with V38F, L39I, F40M
notes: 14C-xylose uptake
Km ([5]; other: conversion of KM): 0.1 g/L
Km ([5]; other: radiolabeled xylose uptake, gene in p414-TEF, S. cerevisiae EX.12): 721 ± 116 µM

B2: Candida intermedia GXS1 transporter protein, wild type, SEQ ID NO: 1 (Sungouiella intermedia) (protein)
chain: T1 sequence (Q2MEV7 1-522)
notes: 14C-xylose uptake
Km [6]: 25.6 ± 65.9 µM
